Assay results: ChEMBL document CHEMBL4725292 (J Med Chem, 2020)
pIC50: −log10 of the molar value.

Key:
[1] = Lipophilicity, logD of the compound at pH 7.4 by chromatographic method; format: physicochemical; details: buffer
[2] = biological target: Bromodomain-containing protein 4 (Homo sapiens, UniProt O60885, Y390A); test: Displacement of Alexa Fluor 647 labelled ligand from His6-thr-tagged BRD4 BD1 (1 to 477 residues)/BD2 Y390A mutant (unknown origin) after 30 mins by TR-FRET assay
[3] = biological target: Bromodomain-containing protein 4 (Homo sapiens, UniProt O60885, Y97A); test: Displacement of Alexa Fluor 647 labelled ligand from His6-tagged BRD4 BD2 (1 to 477 residues)/BD1 Y97A mutant (unknown origin) after 30 mins by TR-FRET assay
[4] = tested on: Bromodomain-containing protein 4 (Homo sapiens), O60885 [UNDEFINED MUTATION]; test: Selectivity index, […] for His6-thr-tagged BRD4 BD1 (1 to 477 residues)/BD2 Y390A mutant (unknown origin) to pIC50 for His6-tagged BRD4 BD2 (1 to 477 residues)/BD1 Y97A mutant (unknown origin)
[5] = biological target: T1, ATPase family AAA domain-containing protein 2 (Homo sapiens, UniProt Q6PL18); test: Inhibition of ATAD2 (unknown origin) by TR-FRET assay
T1 sequence (Q6PL18 whole entry): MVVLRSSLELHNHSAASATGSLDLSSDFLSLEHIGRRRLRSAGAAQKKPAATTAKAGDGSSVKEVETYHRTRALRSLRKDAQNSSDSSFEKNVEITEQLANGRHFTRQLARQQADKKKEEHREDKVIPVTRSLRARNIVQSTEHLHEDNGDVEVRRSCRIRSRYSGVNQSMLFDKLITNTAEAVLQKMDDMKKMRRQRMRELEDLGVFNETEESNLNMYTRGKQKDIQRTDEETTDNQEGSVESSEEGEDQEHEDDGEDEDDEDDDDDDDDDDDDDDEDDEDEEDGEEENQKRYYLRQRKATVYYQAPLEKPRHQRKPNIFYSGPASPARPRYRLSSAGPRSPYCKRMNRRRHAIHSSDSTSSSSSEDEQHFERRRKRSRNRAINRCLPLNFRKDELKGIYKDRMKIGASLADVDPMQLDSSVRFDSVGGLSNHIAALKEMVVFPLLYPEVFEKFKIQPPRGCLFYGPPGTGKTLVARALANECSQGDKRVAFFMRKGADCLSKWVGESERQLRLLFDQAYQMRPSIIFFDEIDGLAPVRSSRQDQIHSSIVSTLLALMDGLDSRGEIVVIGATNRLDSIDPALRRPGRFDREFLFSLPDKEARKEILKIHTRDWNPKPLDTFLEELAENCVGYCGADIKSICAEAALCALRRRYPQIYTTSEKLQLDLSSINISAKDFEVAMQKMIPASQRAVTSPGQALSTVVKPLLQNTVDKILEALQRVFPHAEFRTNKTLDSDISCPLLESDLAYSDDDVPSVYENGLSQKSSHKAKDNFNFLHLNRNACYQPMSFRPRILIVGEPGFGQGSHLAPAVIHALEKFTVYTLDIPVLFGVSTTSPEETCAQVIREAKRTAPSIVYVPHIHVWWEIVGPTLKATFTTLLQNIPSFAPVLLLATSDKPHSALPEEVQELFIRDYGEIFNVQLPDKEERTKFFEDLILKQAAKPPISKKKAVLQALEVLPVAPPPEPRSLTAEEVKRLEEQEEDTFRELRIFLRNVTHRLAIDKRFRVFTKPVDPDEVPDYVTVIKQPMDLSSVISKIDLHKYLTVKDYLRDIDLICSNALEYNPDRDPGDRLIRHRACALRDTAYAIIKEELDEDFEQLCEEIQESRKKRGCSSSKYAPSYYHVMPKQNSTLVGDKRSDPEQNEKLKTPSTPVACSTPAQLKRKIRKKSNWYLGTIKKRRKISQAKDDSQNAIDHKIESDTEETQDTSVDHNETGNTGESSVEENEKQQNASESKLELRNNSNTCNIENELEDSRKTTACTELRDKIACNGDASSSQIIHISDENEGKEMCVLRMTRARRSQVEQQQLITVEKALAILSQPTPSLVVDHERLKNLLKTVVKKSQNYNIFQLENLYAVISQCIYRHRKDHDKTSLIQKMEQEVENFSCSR

[6] = Permeability of the compound in pH 7.4 phosphate buffer measured after 3 hrs by artificial membrane permeability assay based HPLC analysis; format: ADME; details: PAMPA, pH 7.4, read-out: permeability

SMILES	chromatographic logD [1]	pIC50 [2]	pIC50 [3]	Selectivity Index [4]	pIC50 [5]	Papp at 3 h [6] [×10⁻⁶ cm/s]	logD [1]
CO[C@H]1CNC[C@@H](OCC2CCC(F)(F)CC2)[C@@H]1Nc1ncc(-c2cncc(C)c2)c2cc(C)c(=O)[nH]c12	3.17	–	–	–	–	–	–
Cc1coc(-c2cnc(N[C@@H]3CCN(C)C[C@H]3C(=O)NC3CCCCC3)c3[nH]c(=O)c(C)cc23)c1	4.46	7.40	4.70	501	–	–	–
Cc1cc2c(-c3ccco3)cnc(N[C@H]3CCNC[C@@H]3C(=O)NC3CCCCC3)c2[nH]c1=O	3.12	5.80	5.00	–	–	–	–
Cc1ccc(-c2cnc(N[C@@H]3CCN(C)C[C@H]3C(=O)NC3CCCCC3)c3[nH]c(=O)c(C)cc23)o1	4.33	7.60	4.80	631	–	–	–
Cc1cc2c(-c3cccs3)cnc(N[C@@H]3CCN(C)C[C@H]3C(=O)NC3CCCCC3)c2[nH]c1=O	4.61	7.80	5.40	251	–	–	–
Cc1csc(-c2cnc(N[C@@H]3CCN(C)C[C@H]3C(=O)NC3CCCCC3)c3[nH]c(=O)c(C)cc23)c1	5.27	7.30	4.80	316	–	–	–
Cc1cc2c(C3=CCCC3)cnc(N[C@@H]3CCNC[C@H]3C(=O)NC3CCCCC3)c2[nH]c1=O (mixture of isomers)	4.4	6.70	4.40	200	–	–	–
Cc1cc2c(-c3ccccc3)cnc(N[C@@H]3CCNC[C@H]3C(=O)NC3CCCCC3)c2[nH]c1=O (mixture of isomers)	3.36	6.20	4.60	40	–	–	–
Cc1cc2ccnc(N[C@@H]3CCNC[C@H]3C(=O)NC3CCOCC3)c2[nH]c1=O (mixture of isomers)	0.71	5.60	4.90	5	< 4.40	–	–
Cc1cc2c(C3=CCOCC3)cnc(N[C@@H]3CCNC[C@H]3C(=O)NC3CCCCC3)c2[nH]c1=O (mixture of isomers)	2.07	5.90	4.40	30	–	–	–
Cc1cc2c(-c3ccsc3)cnc(N[C@@H]3CCNC[C@H]3C(=O)NC3CCCCC3)c2[nH]c1=O (mixture of isomers)	3.79	7.00	< 4.30	> 501	–	–	–
Cc1cc2c(C3=CCCCC3)cnc(N[C@@H]3CCNC[C@H]3C(=O)NC3CCCCC3)c2[nH]c1=O (mixture of isomers)	4.78	6.00	4.90	10	–	–	–
Cc1cc2ccnc(N[C@@H]3CCNC[C@H]3C(=O)N[C@H]3CCCOC3)c2[nH]c1=O (mixture of isomers)	0.98	4.60	< 4.30	> 2	< 4.40	–	–
Cc1cc2ccnc(N[C@@H]3CCNC[C@H]3C(=O)NCC3CC3)c2[nH]c1=O (mixture of isomers)	1.05	5.50	< 4.30	> 15	< 4.40	–	–
Cc1cc2c(-c3ccoc3)cnc(N[C@@H]3CCNC[C@H]3C(=O)NC3CCCCC3)c2[nH]c1=O (mixture of isomers)	2.91	7.40	4.90	316	–	–	–
C/C=C/c1cnc(N[C@@H]2CCNC[C@H]2C(=O)NC2CCCCC2)c2[nH]c(=O)c(C)cc12 (racemic)	3.55	6.90	4.50	250	–	–	–
Cc1cc2cccc(N[C@@H]3CCNC[C@H]3C(=O)NC3CCCCC3)c2[nH]c1=O (racemic)	2.52	5.50	4.50	10	–	< 0.3	–
Cc1cc2ccnc(N[C@@H]3CCNC[C@@H]3C(=O)NC3CCCCC3)c2[nH]c1=O (relative stereo)	1.88	5.30	< 4.30	> 10	< 4.40	–	–

Continued by rising pIC50 [2], values first:

chromatographic logD [1]	pIC50 [2]	pIC50 [3]	Selectivity Index [4]	pIC50 [5]	Papp at 3 h [6] [×10⁻⁶ cm/s]	logD [1]	SMILES
1.08	5.10	4.50	4	< 4.40	–	–	CO[C@@H](C)CNC(=O)[C@@H]1CNCC[C@H]1Nc1nccc2cc(C)c(=O)[nH]c12 (mixture of isomers)
1.89	5.30	< 4.30	> 10	< 4.40	–	–	Cc1cc2ccnc(N[C@@H]3CCNC[C@H]3C(=O)N[C@H](C)C(C)C)c2[nH]c1=O (relative stereo)
0.85	5.40	< 4.30	> 10	< 4.40	–	–	Cc1cc2ccnc(N[C@@H]3CCNC[C@H]3C(=O)N[C@@H]3CCCOC3)c2[nH]c1=O (mixture of isomers)
1.87	5.60	4.40	15	< 4.40	–	–	Cc1cc2ccnc(N[C@@H]3CCNC[C@H]3C(=O)NC3CCCC3)c2[nH]c1=O (relative stereo)
1.6	5.70	< 4.30	> 25	< 4.40	–	–	Cc1cc2ccnc(N[C@@H]3CCNC[C@H]3C(=O)NCC(C)C)c2[nH]c1=O (mixture of isomers)
2.36	5.80	< 4.30	> 30	< 4.40	–	–	Cc1cc2ccnc(N[C@@H]3CCNC[C@H]3C(=O)NCC3CCCC3)c2[nH]c1=O (mixture of isomers)
2.51	5.90	< 4.30	> 40	–	–	–	Cc1cncc(-c2cnc(N[C@@H]3CCNC[C@H]3C(=O)NC3CCCCC3)c3[nH]c(=O)c(C)cc23)c1 (relative stereo)
1.47	6.80	4.80	100	–	–	–	Cc1cc2c(-c3cnn(C)c3)cnc(N[C@@H]3CCNC[C@H]3C(=O)NC3CCCCC3)c2[nH]c1=O (mixture of isomers)
5.13	7.00	4.50	316	–	–	–	Cc1ccsc1-c1cnc(N[C@@H]2CCN(C)C[C@H]2C(=O)NC2CCCCC2)c2[nH]c(=O)c(C)cc12 (relative stereo)
2.43	7.10	4.70	251	–	–	–	Cc1cc2c(-c3cnn(C)c3)cnc(N[C@@H]3CCN(C)C[C@H]3C(=O)NC3CCCCC3)c2[nH]c1=O
5.3	7.20	< 4.30	> 794	–	–	–	Cc1ccc(-c2cnc(N[C@@H]3CCN(C)C[C@H]3C(=O)NC3CCCCC3)c3[nH]c(=O)c(C)cc23)s1
4.35	7.30	4.80	316	–	–	–	Cc1ccoc1-c1cnc(N[C@@H]2CCN(C)C[C@H]2C(=O)NC2CCCCC2)c2[nH]c(=O)c(C)cc12
3.23	7.30	4.50	630	–	–	–	Cc1cc2c(-c3cccs3)cnc(N[C@@H]3CCNC[C@H]3C(=O)NC3CCCCC3)c2[nH]c1=O (racemic)
–	7.40	4.60	–	–	3.8	3.14	Cc1cc2c(-c3ccco3)cnc(N[C@@H]3CCNC[C@H]3C(=O)NC3CCCCC3)c2[nH]c1=O (racemic)
